Measured values taken from patent US20080175831A1 (priority 2006, published 2008).

How the values were obtained:
[1] = system: C3Heb/FeJ strain of Kv1.1 knockouts; assay: Status epilepticus induced with kainate, three-stage injection protocol; type: in vivo, mouse
Procedure: A three-stage injection protocol is employed to induce status epilepticus with kainate. Mice are given 10 mg/kg (in pH 7.4 saline) of kainate subcutaneously, after which they begin electroclinical seizure activity. An additional 5 mg/kg is administered 30 minutes after behavioral seizure initiation, followed by another 5 mg/kg dose sc after another 30 minutes. This protocol has previously provided a high survivability rate (greater than 90%) in the C3Heb/FeJ strain of Kv1.1 knockouts, and to moreover sustain the status for at least a 2-hour duration. Behavioral seizure scoring is conducted using a modified Racine scale, and cumulative seizure scores are generated for each animal (a seizure score is given every minute, with the highest numerical value based on the Racine scale; then the cumulative score is generated by adding all the individual scores for each minute of seizure activity).

Kv1.1 mutant mice = assay: Neural damage in the hippocampus assessed with FluoroJade B staining after systemic treatment; type: in vivo, mouse; conditions: blood flow suppressor 7-nitroindazole 50 mg/kg IP; blood flow enhancer acetazolamide 30 mg/kg IP
Procedure: Ictal hyperemia and/or ischemia leads to neuronal damage. The contribution of ictal blood flow to neural damage (assessed with Fluorojade B staining) is determined by measuring the neural damage in the hippocampus, as a function of systemic treatment with a blood flow suppressor (e.g., 7-nitroindazole; 50 mg/kg IP) and a blood flow enhancer (e.g., acetazolamide; 30 mg/kg IP).
Ictal hyperemia and/or ischemia leads to neuronal damage. The contribution of ictal blood flow to neural damage is assessed with FluoroJade B staining to measure the neural damage in the hippocampus, as a function of systemic treatment with a blood flow suppressor (7-nitroindazole; 50 mg/kg IP) and enhancer (acetazolamide; 30 mg/kg IP).
Ten minutes before imaging blood flow, drugs will be administered by IP injection at a volume of 0.01 ml per g of body weight. […]
The staining solution is made with 0.01% stock solution of FluoroJade B (Histo-Chem. Inc., Jefferson Ark.) in distilled water (final dye concentration of 0.0004%). […] The tissue representing the hippocampus is then examined using epifluorescence microscopy with blue (450-490 nm) excitation light: the position of the imaging focus is localized by the red Di-I track from the cannula, and neuronal damage is assessed by FluoroJade B staining colored green. […]

Kv1.1 mutants = conditions: 30 mg/kg IP; cited from earlier work
seizures = conditions: in vivo; cited from earlier work
[2] = kainate 10 mg/kg sc, then 5 mg/kg and 5 mg/kg at 30 minute intervals

| Structure (SMILES) | duration of sustained status epilepticus [1, 2] [h] | survivability rate [1, 2] | neural damage after kainate-induced status epilepticus (FIGS. 6A-6B) ([1]; mouse, FluoroJade B) | neural damage in the hippocampus (FluoroJade B staining) (Kv1.1 mutant mice) | effect on blood flow (Kv1.1 mutants) | effect on seizures (seizures) |
| --- | --- | --- | --- | --- | --- | --- |
| C=C(C)[C@H]1CN[C@H](C(=O)O)[C@H]1CC(=O)O [kainate] | ≥ 2 | greater than 90% | statistically significant effects of neural damage | – | – | – |
| CC(=O)Nc1nnc(S(N)(=O)=O)s1 [acetazolamide] | – | – | – | increased neural damage | increased blood flow | reduce seizures |
| O=[N+]([O-])c1cccc2cn[nH]c12 [7-nitroindazole] | – | – | – | less neural damage | – | – |
